# Tests used:
# [1] = tested on: caspase 8 in HCT116 lysates; assay: Caspase 8 activity (caspase glo 8) of cell lysates / IP inputs; assay type: cell-based, Homo sapiens; details: for norm RLUs: rep 2, normalized by lysate quant
# Procedure: Cells harvested from a 6-well plate were resuspended in 100 μl of lysis buffer (30 mM HEPES pH 7.2, 150 mM NaCl, 1% Triton X-100) and lysed via needle shearing (25G, 10 passes) followed by a 30 min incubation on ice. Supernatant was collected after centrifuging at 1000xg for 5 min. For the caspase activity assay, 10 μl of supernatant diluted with lysis buffer (1:25, 1:50, 1:100 to stay within linear range of luminescence measurements) was incubated with 10 μl of the luminogenic caspase glo 8 substrate (Promega #PRG8200) in a 384-white walled plate (Corning 3574) for 45 min at RT before measuring luminescence on a Spectramax-M5 plate reader.
# [2] = tested on: DR5; assay: GFP immunoprecipitation: DR5 (FADD, caspase 8) recovered with GFP-tagged protein, Western blot; assay type: cell-based, Homo sapiens; details: for fraction of DR5 IP'ed: GFP IP
# Procedure: 15 cm dishes were seeded with 4 million HCT116 cells and allowed to recover for 18 hr prior to transfection. Samples were then transfected for 24 hr with the GFP-tagged ER trafficked protein, cytosolic GFP, or empty vector. To harvest apoptotic and living cells for each sample, all media and washes were collected. Cells were scraped in 2 ml of cold PBS and combined with the media and washes. Samples were centrifuged to pellet cells, washed with 1 ml cold PBS, and flash frozen in liquid N2 prior to lysis.
# The cell pellets were resuspended in 750 μl of 30 mM HEPES pH 7.2, 150 mM NaCl, 1% Triton X-100 with 1x Roche protease inhibitor cocktail (if used subsequently for caspase glo 8 assay) or with 5x Roche protease inhibitor cocktail (if used for immunoblotting). The cells were lysed by mechanical shearing through a 25G needle for 13–15 plunges followed by incubation on ice for 30 min. The lysate was centrifuged at 2000xg for 5 min to remove debris and then incubated with 30 μl of GFP-Trap magnetic agarose beads (Chromotek gtma-20) for 4 hr at 4°C. The beads were then washed with 750 μl of lysis buffer for 10 min at 4°C for three rounds.
# For Western blots, samples were eluted by adding 35 μl of non-reducing SDS gel loading buffer (50 mM Tris-HCl (pH 6.8), 2% SDS, 0.1% bromophenol blue, 10% glycerol) and incubated for 10 min at 70°C. The beads were then magnetically removed from the eluted sample before adding DTT to a final concentration of 25 mM. The entire sample was loaded onto the gel and immunoblotted for DR5, caspase 8, and GFP, in that order.
# [3] = tested on: HCT116 cells; assay: Annexin V (and SytoxBlue) flow cytometry for apoptosis; assay type: cell-based, Homo sapiens
# Procedure: Cells seeded in a 6-well plate were transfected with the specified plasmid for 24 hr and harvested via trypsinization in complete media to allow a 30 min recovery at 37°C. The samples were then centrifuged at 500xg for 5 min and resuspended In 150 μl of a 1:20 dilution of Annexin V-AlexaFluor 647 conjugate (Thermo Scientific #A23204). Samples were transferred to a 96-well U-bottom plate and incubated in the dark for 15 min at RT. The distribution of apoptotic cells was determined by flow cytometry on a BD LSR II.
# [4] = tested on: GFP (340+341); assay: qPCR of GFP transcript (expression of GFP-tagged construct); assay type: cell-based; details: Rep 2; for avg. fold induction GFP (340+341) / fold induction GFP (340+341): relative to empty traffo
substance,measurement,setting,value
INS-GFP: GFP-tagged proinsulin expressed from plasmid,fold change in caspase 8 activity relative to GFP,"[1]; input lysates GFP vs INS vs RHO, Rep1",2.597 fold
same,fold change in caspase 8 activity relative to GFP,"[1]; input lysates GFP vs INS vs RHO, Rep2",2.0013 fold
same,avg fold change in caspase 8 activity relative to GFP,"[1]; input lysates GFP vs INS vs RHO, average of Rep1 and Rep2",2.299 fold
same,Mean ± SEM (lysate inputs),"[1]; lysate inputs, relative to GFP, n=2","2.299 ± 0.2977, n=2"
same,norm RLUs,[1]; dilution 0.025,1827.1 RLUs
same,norm RLUs,[1]; dilution 0.05,3654.19 RLUs
same,norm RLUs,[1]; dilution 0.1,8264.86 RLUs
same,95% confidence interval of difference (lysate inputs),[1]; vs. GFP,0.01818 to 2.580
same,Difference between means (lysate inputs),[1]; vs. GFP,1.299 ± 0.2977
same,fraction of DR5 IP'ed,[2]; sheet 2018-04-13 rep 2,0.03271
same,fraction of DR5 IP'ed,[2]; sheet 2018-09-20 rep 1,0.01265
same,fraction IP'ed,[2]; Rep 1 (second series),0.03271
same,fraction IP'ed,[2]; Rep 2 (second series),0.01265
same,% IP'ed,[2]; average of all replicates,2.268%
same,"fraction IP'ed, average",[2]; average of all replicates,0.02268
same,Mean ± SEM (fraction IP'ed),"[2]; unpaired t test sheet, GFP n=5, MPZ n=3, INS n=2, RHO n=2","0.02268 ± 0.01003, n=2"
same,95% confidence interval (difference between means),"[2]; vs. GFP, fraction IP'ed",-0.02195 to 0.04688
same,Difference between means,"[2]; vs. GFP, fraction IP'ed, ± SEM",0.01247 ± 0.01339
same,PARP cleavage and annexin V staining,"[3]; HCT116, transfected 24 hr, Nt or DR5 siRNA",induced PARP cleavage and annexin V staining in a DR5-dependent manner
same,"Mean ± SEM (siDR5), Annexin V","[3]; siDR5, N=3",19 ± 1.7 N=3
same,"95% confidence interval of difference, Annexin V",[3]; siDR5 vs. siNt,-25 to -8.3
same,"Difference between means, Annexin V",[3]; siDR5 vs. siNt,-17 ± 2.9
same,"Mean ± SEM (siNt), Annexin V","[3]; siNt, N=3",35 ± 2.4 N=3
same,avg. fold induction GFP (340+341),"[4]; 3 hr, mean of 3 replicates",6059.51
same,fold induction GFP (340+341),"[4]; 3 hr, replicate 1",5553.44
same,fold induction GFP (340+341),"[4]; 3 hr, replicate 2",6428.23
same,fold induction GFP (340+341),"[4]; 3 hr, replicate 3",6196.87
same,2^-(deltaCq) GFP (340+341),"[4]; 3 hr, replicate 1",0.9383
same,Cq GFP (340+341),"[4]; 3 hr, replicate 1",19.2537
same,"Cq(sample) - avg Cq(GAPDH), GFP (340+341)","[4]; 3 hr, replicate 1",0.0918
same,2^-(deltaCq) GFP (340+341),"[4]; 3 hr, replicate 2",1.086
same,Cq GFP (340+341),"[4]; 3 hr, replicate 2",19.0426
same,"Cq(sample) - avg Cq(GAPDH), GFP (340+341)","[4]; 3 hr, replicate 2",-0.1192
same,2^-(deltaCq) GFP (340+341),"[4]; 3 hr, replicate 3",1.047
same,Cq GFP (340+341),"[4]; 3 hr, replicate 3",19.0955
same,"Cq(sample) - avg Cq(GAPDH), GFP (340+341)","[4]; 3 hr, replicate 3",-0.06635
same,avg. fold induction GFP (340+341),"[4]; 7 hr, mean of 3 replicates",36312.6
same,fold induction GFP (340+341),"[4]; 7 hr, replicate 1",36506.4
same,fold induction GFP (340+341),"[4]; 7 hr, replicate 2",31765.4
same,fold induction GFP (340+341),"[4]; 7 hr, replicate 3",40666.1
same,2^-(deltaCq) GFP (340+341),"[4]; 7 hr, replicate 1",6.168
same,Cq GFP (340+341),"[4]; 7 hr, replicate 1",16.6754
same,"Cq(sample) - avg Cq(GAPDH), GFP (340+341)","[4]; 7 hr, replicate 1",-2.625
same,2^-(deltaCq) GFP (340+341),"[4]; 7 hr, replicate 2",5.3673
same,Cq GFP (340+341),"[4]; 7 hr, replicate 2",16.8761
same,"Cq(sample) - avg Cq(GAPDH), GFP (340+341)","[4]; 7 hr, replicate 2",-2.4242
same,2^-(deltaCq) GFP (340+341),"[4]; 7 hr, replicate 3",6.871
same,Cq GFP (340+341),"[4]; 7 hr, replicate 3",16.5198
same,"Cq(sample) - avg Cq(GAPDH), GFP (340+341)","[4]; 7 hr, replicate 3",-2.781
same,avg. 2^-(deltaCq) GFP (340+341),"[4]; 24 hr, mean of 3 replicates",90.4075
same,2^-(deltaCq) GFP (340+341),"[4]; 24 hr, replicate 1",82.5431
same,Cq GFP (340+341),"[4]; 24 hr, replicate 1",13.3376
same,"Cq(sample) - avg Cq(GAPDH), GFP (340+341)","[4]; 24 hr, replicate 1",-6.367
same,2^-(deltaCq) GFP (340+341),"[4]; 24 hr, replicate 2",92.9155
same,Cq GFP (340+341),"[4]; 24 hr, replicate 2",13.1668
same,"Cq(sample) - avg Cq(GAPDH), GFP (340+341)","[4]; 24 hr, replicate 2",-6.538
same,2^-(deltaCq) GFP (340+341),"[4]; 24 hr, replicate 3",95.7639
same,Cq GFP (340+341),"[4]; 24 hr, replicate 3",13.1232
same,"Cq(sample) - avg Cq(GAPDH), GFP (340+341)","[4]; 24 hr, replicate 3",-6.581

# Reference: PMC7041945, “Misfolded proteins bind and activate death receptor 5 to trigger apoptosis during unresolved endoplasmic reticulum stress” (eLife, 2020)
